Reference: patent US10477864B2, “Microbiocidal quinoline (thio)carboxamide derivatives” (priority 2016, dated 2019)

Experiments:
[1] = test system: Botryotinia fuckeliana (Botrytis cinerea); assay: Botryotinia fuckeliana (Botrytis cinerea) / liquid culture (gray mould); assay type: cell-based; details: 72 h, read-out: control of Botryotinia fuckeliana
Fusarium culmorum [2] = assay: microbe, parasite or virus in culture; assay type: cell-based; details: read-out: control of Fusarium culmorum
[3] = test system: Glomerella lagenarium (Colletotrichum lagenarium); assay: Glomerella lagenarium (Colletotrichum lagenarium) / liquid culture (anthracnose); assay type: cell-based; details: Colletotrichum orbiculare; read-out: control of Glomerella lagenarium
[4] = test system: Monographella nivalis (Microdochium nivale); assay: Monographella nivalis (Microdochium nivale) / liquid culture (foot rot cereals); assay type: cell-based; details: 96 h, read-out: control of Monographella nivalis
[5] = test system: Magnaporthe grisea (Pyricularia oryzae); assay: microbe, parasite or virus in culture; assay type: cell-based; details: 72 h, read-out: control of Magnaporthe grisea
Fusarium culmorum [6] = assay: whole plant or invertebrate; assay type: in vivo; details: in Triticum aestivum, read-out: control of Fusarium culmorum

SMILES | inhibition of growth at 200 ppm [1] [%] | inhibition of growth at 200 ppm (Fusarium culmorum [2]) [%] | inhibition of growth at 200 ppm [3] [%] | inhibition of growth at 200 ppm [4] [%] | melting point [°C] | inhibition of growth at 200 ppm [5] [%] | pest or weed control at 200 ppm (Fusarium culmorum [6]) [%]
CC(Cc1ccccc1)(CC1CCC1)NC(=O)c1cnc2c(F)cccc2c1 (centres unmarked) [Compound E-112, N-(1-benzyl-2-cyclobutyl-1-methyl-ethyl)-8-fluoro-quinoline-3-carboxamide] | ≥ 80 | ≥ 80 | ≥ 80 | ≥ 80 | 125 to 127 | – | –
C[C@@](Cc1ccccc1)(CC(F)(F)F)NC(=O)c1cnc2c(F)c(F)ccc2c1 [Compound F-38, N-[(1R)-1-benzyl-3,3,3-trifluoro-1-methyl-propyl]-7,8-difluoro-quinoline-3-carboxamide] | ≥ 80 | ≥ 80 | ≥ 80 | – | – | ≥ 80 | –
CC(C)CC(C)(Cc1ccccc1C#N)NC(=O)c1cnc2c(F)cccc2c1 (centres unmarked) [Compound E-44, N-[1-[(2-cyanophenyl)methyl]-1,3-dimethyl-butyl]-8-fluoro-quinoline-3-carboxamide] | ≥ 80 | ≥ 80 | ≥ 80 | – | 43 to 44 | ≥ 80 | ≥ 80
CC(Cc1ccc(F)cc1)(CC(F)(F)F)NC(=O)c1cnc2c(F)cccc2c1 (centres unmarked) [Compound E-66, 8-fluoro-N-[3,3,3-trifluoro-1-[(4-fluorophenyl)methyl]-1-methyl-propyl]quinoline-3-carboxamide] | ≥ 80 | ≥ 80 | ≥ 80 | – | 146 to 147 | ≥ 80 | ≥ 80
CC(F)(F)CC(C)(Cc1ccccc1)NC(=O)c1cnc2c(F)cccc2c1 (centres unmarked) [Compound E-50, N-(1-benzyl-3,3-difluoro-1-methyl-butyl)-8-fluoro-quinoline-3-carboxamide] | ≥ 80 | ≥ 80 | ≥ 80 | – | – | ≥ 80 | ≥ 80
CC(F)(F)CC(C)(Cc1ccccc1)NC(=O)c1cnc2ccccc2c1 (centres unmarked) [Compound E-52, N-(1-benzyl-3,3-difluoro-1-methyl-butyl)quinoline-3-carboxamide] | ≥ 80 | ≥ 80 | ≥ 80 | – | 131 to 133 | ≥ 80 | ≥ 80
COc1ccc2cc(C(=O)NC(C)(Cc3ccccc3)CC(C)C)cnc2c1 (centres unmarked) [Compound E-122, N-(1-benzyl-1,3-dimethyl-butyl)-7-methoxy-quinoline-3-carboxamide] | – | – | – | ≥ 80 | 136 to 138 | – | –
COc1cccc2cc(C(=O)NC(C)(Cc3ccccc3)CC(C)C)cnc12 (centres unmarked) [Compound E-123, N-(1-benzyl-1,3-dimethyl-butyl)-8-methoxy-quinoline-3-carboxamide] | ≥ 80 | ≥ 80 | – | ≥ 80 | 155 to 156 | – | –
COC(C)(C)CC(C)(Cc1ccccc1)NC(=O)c1cnc2c(F)cccc2c1 (centres unmarked) [Compound E-118, N-(1-benzyl-3-methoxy-1,3-dimethyl-butyl)-8-fluoro-quinoline-3-carboxamide] | ≥ 80 | ≥ 80 | ≥ 80 | ≥ 80 | 118 to 120 | – | –
CC(C)CC(C)(Cc1ccc(C#N)cc1)NC(=O)c1cnc2c(F)cccc2c1 (centres unmarked) [Compound E-32, N-[1-[(4-cyanophenyl)methyl]-1,3-dimethyl-butyl]-8-fluoro-quinoline-3-carboxamide] | ≥ 80 | ≥ 80 | ≥ 80 | – | 67 to 69 | ≥ 80 | –
C[C@](Cc1ccccc1)(CC(F)F)NC(=O)c1cnc2c(F)cccc2c1 [Compound F-32, N-[(1S)-1-benzyl-3,3-difluoro-1-methyl-propyl]-8-fluoro-quinoline-3-carboxamide] | ≥ 80 | ≥ 80 | ≥ 80 | ≥ 80 | – | – | ≥ 80
CC(Cc1ccccc1)(CC(F)(F)Cl)NC(=O)c1cnc2c(F)cccc2c1 (centres unmarked) [Compound E-97, N-(1-benzyl-3-chloro-3,3-difluoro-1-methyl-propyl)-8-fluoro-quinoline-3-carboxamide] | ≥ 80 | ≥ 80 | ≥ 80 | ≥ 80 | – | – | ≥ 80
C[C@](Cc1ccccc1)(CC(F)(F)F)NC(=O)c1cnc2c(F)c(F)ccc2c1 [Compound F-37, N-[(1S)-1-benzyl-3,3,3-trifluoro-1-methyl-propyl]-7,8-difluoro-quinoline-3-carboxamide] | ≥ 80 | ≥ 80 | ≥ 80 | – | – | ≥ 80 | ≥ 80
C=CCC(Cc1ccccc1)(NC(=O)c1cnc2c(F)cccc2c1)C(F)(F)F (centres unmarked) [Compound E-92, N-[1-benzyl-1-(trifluoromethyl)but-3-enyl]-8-fluoro-quinoline-3-carboxamide] | ≥ 80 | ≥ 80 | ≥ 80 | ≥ 80 | – | – | ≥ 80
Cc1cccc2cc(C(=O)N[C@@](C)(Cc3ccccc3)CC(F)(F)F)cnc12 [Compound F-27, N-[(1S)-1-benzyl-3,3,3-trifluoro-1-methyl-propyl]-8-methyl-quinoline-3-carboxamide] | ≥ 80 | ≥ 80 | ≥ 80 | ≥ 80 | – | – | ≥ 80
C=C(C)CC(C)(NC(=O)c1cnc2c(F)cccc2c1)C(F)(F)c1ccccc1 (centres unmarked) [Compound E-51, N-[1-[difluoro(phenyl)methyl]-1,3-dimethyl-but-3-enyl]-8-fluoro-quinoline-3-carboxamide] | ≥ 80 | ≥ 80 | ≥ 80 | – | – | ≥ 80 | ≥ 80
CC(C)CC(C)(Cc1ccccc1)NC(=O)c1cnc2cc(Cl)ccc2c1 (centres unmarked) [Compound E-65, N-(1-benzyl-1,3-dimethyl-butyl)-7-chloro-quinoline-3-carboxamide] | ≥ 80 | ≥ 80 | – | – | 172 to 174 | ≥ 80 | –
Cc1c(C(=O)N[C@@](C)(Cc2ccccc2)CC(F)(F)F)cnc2c(F)cccc12 [Compound F-29, N-[(1S)-1-benzyl-3,3,3-trifluoro-1-methyl-propyl]-8-fluoro-4-methyl-quinoline-3-carboxamide] | ≥ 80 | ≥ 80 | ≥ 80 | ≥ 80 | – | – | ≥ 80
C=C(C)C[C@](C)(Cc1ccccc1)NC(=O)c1cnc2c(F)c(F)ccc2c1 [Compound F-20, N-[(1R)-1-benzyl-1,3-dimethyl-but-3-enyl]-7,8-difluoro-quinoline-3-carboxamide] | ≥ 80 | ≥ 80 | ≥ 80 | ≥ 80 | – | – | ≥ 80
CC(F)(F)C[C@@](C)(Cc1ccccc1)NC(=O)c1cnc2c(F)cccc2c1 [Compound F-40, N-[(1R)-1-benzyl-3,3-difluoro-1-methyl-butyl]-8-fluoro-quinoline-3-carboxamide] | ≥ 80 | ≥ 80 | ≥ 80 | – | – | ≥ 80 | ≥ 80
CC(Cc1cccc(F)c1)(CC(F)(F)F)NC(=O)c1cnc2c(F)cccc2c1 (centres unmarked) [Compound E-99, 8-fluoro-N-[3,3,3-trifluoro-1-[(3-fluorophenyl)methyl]-1-methyl-propyl]quinoline-3-carboxamide] | ≥ 80 | ≥ 80 | ≥ 80 | ≥ 80 | 149 to 151 | – | ≥ 80
O=C(NC(CCC(F)(F)F)Cc1ccccc1)c1cnc2c(F)cccc2c1 (centres unmarked) [Compound E-16, N-(1-benzyl-4,4,4-trifluoro-butyl)-8-fluoro-quinoline-3-carboxamide] | ≥ 80 | ≥ 80 | – | – | 157 to 161 | ≥ 80 | ≥ 80
C=C(C)C[C@@](C)(Cc1ccccc1)NC(=O)c1cnc2c(F)cccc2c1 [Compound F-9, N-[(1S)-1-benzyl-1,3-dimethyl-but-3-enyl]-8-fluoro-quinoline-3-carboxamide] | ≥ 80 | ≥ 80 | ≥ 80 | ≥ 80 | – | – | ≥ 80
C=C(C)CC(COC)(Cc1ccccc1)NC(=O)c1cnc2c(F)cccc2c1 (centres unmarked) [Compound E-103, N-[1-benzyl-1-(methoxymethyl)-3-methyl-but-3-enyl]-8-fluoro-quinoline-3-carboxamide] | ≥ 80 | ≥ 80 | ≥ 80 | ≥ 80 | 147 to 149 | – | ≥ 80
